Reference: ChEMBL document CHEMBL2163249, “Exploration of natural compounds as sources of new bifunctional scaffolds targeting cholinesterases and beta amyloid aggregation: the case of chelerythrine” (Bioorg Med Chem, 2012)
Starred links: 1 amine or outer side, 2 acyl side, 3 side chain; linkers in the order of their positions; H or OH if unused. Positions of bridges follow the written chain, without caps; N, C: chain ends. Non-standard residues stand in square brackets, D forms with d. Residues, ends and D or L forms follow the SMILES beside them. Chains are numbered I, II in the order given. Actinocin(9to1) = Cc1c2oc3c(C)ccc(C(=O)[*:1])c3nc-2c(C(=O)[*:2])c(N)c1=O; NMeV = CN[C@H](C(=O)O)C(C)C; Sar = CNCC(=O)O

Columns and labels:
[1] = target: Acetylcholinesterase (Electrophorus electricus) (UniProt O42275); conditions: at 2 mg/mL
Description: Inhibition of electric eel AChE at 2 mg/ml by Ellman's method

[2] = target: Cholinesterase (Equus caballus) (UniProt P81908); conditions: at 2 mg/mL
Chain of Cholinesterase (Equus caballus) (P81908 whole entry): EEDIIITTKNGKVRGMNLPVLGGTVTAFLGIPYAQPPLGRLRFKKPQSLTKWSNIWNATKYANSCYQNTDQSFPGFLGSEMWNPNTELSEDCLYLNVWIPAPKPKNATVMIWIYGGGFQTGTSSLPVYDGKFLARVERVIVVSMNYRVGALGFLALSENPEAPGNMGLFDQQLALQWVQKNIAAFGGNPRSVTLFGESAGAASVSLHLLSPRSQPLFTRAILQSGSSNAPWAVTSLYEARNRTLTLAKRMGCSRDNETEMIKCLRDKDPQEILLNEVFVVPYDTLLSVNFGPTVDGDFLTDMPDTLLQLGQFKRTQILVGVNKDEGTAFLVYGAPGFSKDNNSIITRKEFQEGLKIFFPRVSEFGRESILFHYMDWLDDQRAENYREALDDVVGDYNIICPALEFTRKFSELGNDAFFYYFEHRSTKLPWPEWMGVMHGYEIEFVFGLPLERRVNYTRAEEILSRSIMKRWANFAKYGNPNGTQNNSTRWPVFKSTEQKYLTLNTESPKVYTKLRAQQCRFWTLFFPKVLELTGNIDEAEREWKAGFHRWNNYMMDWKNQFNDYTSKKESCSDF
Description: Inhibition of horse BChE at 2 mg/ml by Ellman's method

Compound	inhibition [1] [%]	inhibition [2] [%]
CN1CCc2cc3c(cc2C(=O)Cc2ccc4c(c2C1)OCO4)OCO3	31.1	7.56
CC(=O)OC[C@]12CCC(C)=C[C@H]1O[C@@H]1[C@H](O)[C@@H](OC(C)=O)[C@@]2(C)[C@]12CO2	23.8	12.3
COc1c2occc2c(OC)c2c(=O)cc(C)oc12	7.57	3.3
COc1cc(CCC(C)=O)ccc1O	-5.32	10.8
O=C1C[C@@H]2OCC=C3CN4CC[C@]56c7ccccc7N1[C@H]5[C@H]2[C@H]3C[C@H]46	12.2	32.4
COc1c2ccoc2cc2oc(=O)ccc12	21.3	10.3
CC(C)=CC[C@@H](O)C1=CC(=O)c2c(O)ccc(O)c2C1=O	15.7	3.58
O=[N+]([O-])c1ncc[nH]1	4.77	14.4
O=c1cc(-c2ccc(O)cc2)oc2c([C@@H]3O[C@H](CO)[C@@H](O)[C@H](O)[C@H]3O)c(O)cc(O)c12	3.3	2.26
CC(C)[C@@]1(O)[C@@H](OC(=O)c2cc[nH]c2)[C@@]2(O)[C@]3(C)C[C@@]4(O)O[C@@]5([C@H](O)[C@@H](C)CC[C@]35O)[C@@]2(O)[C@@]41C	21.7	-2.13
O=c1cc(-c2ccc(O)cc2)oc2c(O[C@@H]3O[C@H](CO)[C@@H](O)[C@H](O)[C@H]3O)c(O)c(O[C@@H]3O[C@H](CO)[C@@H](O)[C@H](O)[C@H]3O)c(O)c12	22.2	1.92
COC1=C(C(C)=O)C2=C(C)Cc3c(OC)c(=O)c(O)c4cc(OC)c5c(OC)cc(O)c6c(c2c3c4c56)C1=O	4.6	-0.88
C[C@H]1C(=O)O[C@@H]2CCN3CC=C(COC(=O)[C@](C)(O)[C@]1(C)O)[C@H]23	19.5	4.32
C[C@@H]1C(=O)O[C@H]2[C@H](O)[C@@]34[C@H]5C[C@@H](C(C)(C)C)[C@]36[C@@H](OC(=O)[C@@H]6O)O[C@@]4(C(=O)O5)[C@@]12O	-7.35	9.99
C/C=C(/C)C(=O)O[C@H]1C[C@@]2(C)O[C@H]2[C@@H](O)[C@@]2(C)CC[C@@](O)(C(C)C)[C@H]12	17.2	-1.91
BLEOMYCIN	10.2	10.8
COc1ccc(CC2NCCc3cc(OC)c(OC)cc32)cc1OC (configuration not stated)	4.06	7.36
CC1(C)[C@@H](O)CC[C@]2(C)[C@H]3C(=O)C=C4[C@@H]5C[C@@](C)(C(=O)O)CC[C@]5(C)CC[C@@]4(C)[C@]3(C)CC[C@@H]12	-3.12	4.46
COC(=O)[C@H]1[C@H]2C[C@H]3c4[nH]c5cc(OC)ccc5c4CCN3C[C@H]2C[C@@H](OC(=O)c2cc(OC)c(OC)c(OC)c2)[C@@H]1OC	-2.45	-8.07
C[C@@H]1O[C@@H](OC[C@H]2O[C@@H](Oc3cc(O)c4c(=O)cc(-c5ccc(O)cc5)oc4c3)[C@H](O)[C@@H](O)[C@@H]2O)[C@H](O)[C@H](O)[C@H]1O	23	-5.05
C=C[C@H]1CN2CC[C@H]1C[C@@H]2[C@@H](O)c1ccnc2ccccc12	5.94	9.07

Compound	inhibition [1] [%]	inhibition [2] [%]
CCN1C[C@]2(COC)CC[C@H](O)[C@@]34C5C[C@@H]6[C@@H](OC)C[C@](O)(C(CC23)C14)C5[C@H]6OC(C)=O (some centres not stated)	28.9	-0.23
N[C@H](C(=O)O)[C@@H]1CC(Cl)=NO1	2.09	8.62
C[C@@H]1C[C@H]2O[C@@H]2/C=C\C=C\C(=O)Cc2c(Cl)c(O)cc(O)c2C(=O)O1	17.4	-1.22
Cc1cccc2c3c(ccc12)C1=C(C(=O)C3=O)[C@@H](C)CO1	3.53	-3.19
C[C@H]1[C@H]2CC[C@H]3[C@@H]4CC=C5C[C@@H](N(C)C)CC[C@]5(C)[C@H]4CC[C@]23CN1C	29.9	45.2
CN[C@@H]1[C@H](O)[C@H](NC)[C@H]2O[C@@]3(O)C(=O)C[C@@H](C)O[C@H]3O[C@@H]2[C@H]1O	15	-9.67
COC[C@H]1OC(=O)c2coc3c2[C@@]1(C)C1=C(C3=O)[C@@H]2CCC(=O)[C@@]2(C)C[C@H]1OC(C)=O	16.2	-6.29
O=C1/C(=C/c2ccc(O)c(O)c2)Oc2c1ccc(O[C@@H]1O[C@H](CO)[C@@H](O)[C@H](O)[C@H]1O)c2O	22.4	3.06
C[C@H]1O[C@@H](Oc2c(-c3cc(O)c(O)c(O)c3)oc3cc(O)cc(O)c3c2=O)[C@@H](O)[C@@H](O)[C@@H]1O	20.9	-2.1
CC(C)=CC[C@@H](OC(=O)C=C(C)C)C1=CC(=O)c2c(O)ccc(O)c2C1=O	22.8	6.03
C[C@]12CC[C@H](O)C[C@H]1CC[C@@H]1[C@@H]2CC[C@]2(C)[C@@H](C3=CC(=O)OC3)[C@@H](O)C[C@]12O	-1.84	1.77
C[C@H]1[C@H](C)CC[C@]2(C(=O)O)CC[C@]3(C)C(=CC[C@@H]4[C@@]5(C)C[C@@H](O)[C@H](O)[C@@](C)(CO)[C@@H]5CC[C@]43C)[C@H]12	3.99	-8.64
C[C@@H]1O[C@@H](O[C@H]2C[C@@H](O)[C@]3(CO)[C@H]4[C@H](O)C[C@]5(C)[C@@H](C6=CC(=O)OC6)CC[C@]5(O)[C@@H]4CC[C@]3(O)C2)[C@H](O)[C@H](O)[C@H]1O	-3.72	5.11
COc1cc2c(cc1OC)[C@@]13CC[N+]4([O-])CC5=CCO[C@H]6CC(=O)N2[C@H]1[C@H]6[C@H]5C[C@@H]34 (some centres not stated)	12.8	-6.05
CC(C)(O)CC[C@@H](O)[C@](C)(O)[C@H]1CC[C@@]2(O)C3=CC(=O)[C@@H]4C[C@@H](O)[C@@H](O)C[C@]4(C)[C@H]3CC[C@]12C	3.26	-3.01
CC(=O)C1=C(O)C=C2Oc3c(C(C)=O)c(O)c(C)c(O)c3[C@@]2(C)C1=O	2.06	4.28
CCCC[N+]1(C)[C@@H]2C[C@@H](OC(=O)[C@H](CO)c3ccccc3)C[C@H]1[C@@H]1O[C@@H]12 (some centres not stated)	22.5	-4.42
CC(C)[C@@H]1NC(=O)[C@H](C)OC(=O)[C@@H](C(C)C)NC(=O)[C@@H](C(C)C)OC(=O)[C@H](C(C)C)NC(=O)[C@H](C)OC(=O)[C@@H](C(C)C)NC(=O)[C@@H](C(C)C)OC(=O)[C@H](C(C)C)NC(=O)[C@H](C)OC(=O)[C@@H](C(C)C)NC(=O)[C@@H](C(C)C)OC1=O	16.6	-1.5
CC(=O)O[C@H]1[C@H]2[C@@H](OC(=O)Cc3ccccc3)[C@@H](C)C[C@]2(OC(C)=O)C(=O)/C(C)=C/[C@@H]2[C@H](CC[C@@]13CO3)C2(C)C	-2.46	-5.46
CC[C@H]1CN2CCc3cc(OC)c(OC)cc3[C@@H]2C[C@@H]1C[C@H]1NCCc2cc(OC)c(OC)cc21	13.7	1.38
CCCCC[C@H](O)/C=C/[C@H]1C=CC(=O)[C@@H]1CCCCCCC(=O)O	15.3	-1.82

Compound	inhibition [1] [%]	inhibition [2] [%]
COc1ccc(-c2cc(=O)c3c(O)cc(O)cc3o2)cc1O	-8.89	-6.13
CCCCC[C@H](O)/C=C/C1=C(CCCCCCC(=O)O)C(=O)CC1	15.6	-1.44
O=c1c(-c2ccc(O)cc2)coc2cc(O[C@@H]3O[C@H](CO)[C@@H](O)[C@H](O)[C@H]3O)cc(O)c12	24.6	1.82
CN1CCc2cc3c(c4c2[C@H]1Cc1ccccc1-4)OCO3	34.2	25.9
Cc1cc(=O)oc2cc(O)ccc12	4.46	0.88
c1cc2c(cc1[C@H]1OC[C@@H]3[C@H]1CO[C@H]3c1ccc3c(c1)OCO3)OCO2	4.7	-3.5
O=c1c(O)c(-c2ccc(O)c(O)c2)oc2cc(O)cc(O)c12	18.1	6.73
Cc1c2oc3c(C)ccc(C(=O)N[C@@H]4C(=O)N[C@H](C(C)C)C(=O)N5CCC[C@H]5C(=O)N(C)CC(=O)N(C)[C@@H](C(C)C)C(=O)O[C@@H]4C)c3nc-2c(C(=O)N[C@@H]2C(=O)N[C@H](C(C)C)C(=O)N3CCC[C@H]3C(=O)N(C)CC(=O)N(C)[C@@H](C(C)C)C(=O)O[C@@H]2C)c(N)c1=O (I: T[dV]P[Sar][NMeV] / II: T[dV]P[Sar][NMeV]; ester I:1-I:C, II:1-II:C; linker I:N-II:N via Actinocin(9to1))	-2.56	3.31
COc1ccc(C(=O)O[C@H]2CC[C@@]3(C)[C@@H]4CC[C@H]5[C@]6(O)C[C@H](O)[C@@]7(O)[C@@H](CN8C[C@@H](C)CC[C@H]8[C@@]7(C)O)[C@]6(O)C[C@@]53O[C@]24O)cc1OC	21.8	-4.13
C[C@H]1CC[C@@H]2[C@@H](C)[C@H]3[C@H](C[C@H]4[C@@H]5CC[C@H]6C[C@@H](O)CC[C@]6(C)[C@H]5CC[C@]34C)N2C1	5.43	41.9
Cc1coc2c1C(=O)C(=O)c1c-2ccc2c1CCCC2(C)C	13.1	-0.66
COc1cc(C(=O)OC2CC3CCC(C2)N3C)ccc1O (configuration not stated)	31.5	6.73
CCN1C[C@]2(C)CC[C@H](OC)[C@@]34C1[C@]1(OCO[C@@]15C[C@H](OC)[C@H]1C[C@]3(O)[C@@H]5[C@H]1OC)[C@@H](OC(C)=O)[C@H]24	29.5	0.02
O=C1c2ccccc2-n2c1nc1ccccc1c2=O	35.3	-2.13
O=C(O)Cc1c[nH]c2ccccc12	2.98	-7.42
CC1=C2C[C@H]3[C@@H](CC=C4C[C@@H](O)CC[C@@]43C)[C@@H]2CC[C@]12O[C@@H]1C[C@H](C)CN[C@H]1[C@H]2C	-3.81	5.84
Cn1cnc2c1c(=O)[nH]c(=O)n2C	39.4	3.88
O=c1cc(-c2ccc(O)cc2)oc2cc(O)cc(O)c12	18.4	4.5
CC[C@@H](C(=O)[C@@H](C)[C@@H](O)[C@H](C)CCc1ccc(C)c(O)c1C(=O)O)[C@H]1O[C@](CC)([C@H]2CC[C@](O)(CC)[C@H](C)O2)C[C@@H]1C	-1.88	10.5
